SMILES strings stand for the structures.

MUSK (human), sequence (O15146 whole entry, looked up): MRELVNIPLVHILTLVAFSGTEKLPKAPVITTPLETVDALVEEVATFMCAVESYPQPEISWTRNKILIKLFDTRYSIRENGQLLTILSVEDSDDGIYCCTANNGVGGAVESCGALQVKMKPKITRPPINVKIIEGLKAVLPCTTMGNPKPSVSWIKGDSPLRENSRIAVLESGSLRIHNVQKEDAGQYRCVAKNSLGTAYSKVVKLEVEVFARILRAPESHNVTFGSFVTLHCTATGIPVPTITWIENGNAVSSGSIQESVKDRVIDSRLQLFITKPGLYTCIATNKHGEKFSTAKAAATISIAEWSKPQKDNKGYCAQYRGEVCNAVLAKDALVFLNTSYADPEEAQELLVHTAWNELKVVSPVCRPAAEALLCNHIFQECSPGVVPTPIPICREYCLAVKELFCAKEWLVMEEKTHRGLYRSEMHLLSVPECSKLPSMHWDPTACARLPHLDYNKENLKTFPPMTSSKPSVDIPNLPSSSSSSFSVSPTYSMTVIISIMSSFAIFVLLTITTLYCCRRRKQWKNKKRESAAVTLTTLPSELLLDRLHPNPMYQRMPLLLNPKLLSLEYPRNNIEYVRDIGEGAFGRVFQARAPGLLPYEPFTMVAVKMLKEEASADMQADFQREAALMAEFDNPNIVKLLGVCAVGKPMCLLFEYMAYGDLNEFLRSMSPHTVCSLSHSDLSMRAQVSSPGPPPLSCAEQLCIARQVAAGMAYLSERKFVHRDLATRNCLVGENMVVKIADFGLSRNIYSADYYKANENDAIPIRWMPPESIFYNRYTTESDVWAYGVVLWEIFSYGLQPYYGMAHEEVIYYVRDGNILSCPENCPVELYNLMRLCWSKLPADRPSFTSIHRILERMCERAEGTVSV

The first experiment has as its target MAP3K7 TAB1 (human) (UniProt O43318+Q15750). In words: radiometric filter-binding kinase assay, Kinase HotSpot. The settings on record: compound 0.5 µM; ATP 10 µM.
By residual activity is commonly meant the signal under treatment as a percentage of the control signal. Consider `CCN(CC)C(=O)c1ccc(Nc2nc(OCC3CCCCC3)c3nc[nH]c3n2)cc1`, for which the residual activity stood at 57.1%.
On the same count and under the same terms, the same measure for `Nc1cccc(-c2cc3c(Oc4cccc(O)c4)ncnc3[nH]2)c1`: 63%; for `CC[n+]1c(/C=C/N(C)c2ccccc2)n(-c2ccccc2)c2ccc(-c3nc4ccccc4s3)cc21`: 98.8%.

Another experiment deals with FLT3 (human) (UniProt P36888). The experiment is described as above. The note with it: compound 0.5 µM; ATP 10 µM.
For `CCN(CC)C(=O)c1ccc(Nc2nc(OCC3CCCCC3)c3nc[nH]c3n2)cc1`, the residual activity amounted to 10.3%.
`Nc1cccc(-c2cc3c(Oc4cccc(O)c4)ncnc3[nH]2)c1`: the residual activity turned out to be 30.7%.
With `CC[n+]1c(/C=C/N(C)c2ccccc2)n(-c2ccccc2)c2ccc(-c3nc4ccccc4s3)cc21`, the residual activity stood at 98.6%.

The target in a further experiment is STK25 (human) (UniProt O00506). The experiment is described as above. The note with it: compound 0.5 µM; ATP 10 µM.
STK25 (human), sequence (O00506 whole entry, looked up): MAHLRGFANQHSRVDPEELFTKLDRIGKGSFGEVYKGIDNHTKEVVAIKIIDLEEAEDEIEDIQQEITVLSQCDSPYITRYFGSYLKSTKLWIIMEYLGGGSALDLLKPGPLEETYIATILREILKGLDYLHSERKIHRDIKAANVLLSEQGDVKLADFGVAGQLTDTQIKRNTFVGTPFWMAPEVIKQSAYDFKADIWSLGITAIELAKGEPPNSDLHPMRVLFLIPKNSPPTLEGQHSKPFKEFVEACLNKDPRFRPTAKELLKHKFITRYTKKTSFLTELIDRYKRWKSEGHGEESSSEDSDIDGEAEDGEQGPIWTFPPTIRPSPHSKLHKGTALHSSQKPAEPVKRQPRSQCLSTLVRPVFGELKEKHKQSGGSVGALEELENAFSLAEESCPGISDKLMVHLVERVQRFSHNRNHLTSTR
On to `CCN(CC)C(=O)c1ccc(Nc2nc(OCC3CCCCC3)c3nc[nH]c3n2)cc1`, for which the residual activity worked out at 85.2%.
The same measure, in the same setting: the same measure for `Nc1cccc(-c2cc3c(Oc4cccc(O)c4)ncnc3[nH]2)c1`: 91.6%.
Still for that read-out and setting: the figure for `CC[n+]1c(/C=C/N(C)c2ccccc2)n(-c2ccccc2)c2ccc(-c3nc4ccccc4s3)cc21` is 96.5%.

A further experiment concerns the target MST1R (human) (UniProt Q04912). The description is as above. The note with it: compound 0.5 µM; ATP 10 µM.
Take `CCN(CC)C(=O)c1ccc(Nc2nc(OCC3CCCCC3)c3nc[nH]c3n2)cc1`: the residual activity is 103%.
The same measure, in the same setting: the same measure for `Nc1cccc(-c2cc3c(Oc4cccc(O)c4)ncnc3[nH]2)c1`: 103%; for `CC[n+]1c(/C=C/N(C)c2ccccc2)n(-c2ccccc2)c2ccc(-c3nc4ccccc4s3)cc21`: 94.4%.

The target in a further experiment is AKT2 (human) (UniProt P31751). The description is as above. The note with it: compound 0.5 µM; ATP 10 µM.
On to `CCN(CC)C(=O)c1ccc(Nc2nc(OCC3CCCCC3)c3nc[nH]c3n2)cc1`, for which the residual activity is 92%.
Still for that read-out and setting: the figure for `Nc1cccc(-c2cc3c(Oc4cccc(O)c4)ncnc3[nH]2)c1` is 109%; for `CC[n+]1c(/C=C/N(C)c2ccccc2)n(-c2ccccc2)c2ccc(-c3nc4ccccc4s3)cc21` it is 99.6%.

Another experiment has as its target CAMKK2 (human) (UniProt Q96RR4). Described as above. The note with it: compound 0.5 µM; ATP 10 µM.
Take `CCN(CC)C(=O)c1ccc(Nc2nc(OCC3CCCCC3)c3nc[nH]c3n2)cc1`: the residual activity turned out to be 97.5%.
Turning to `Nc1cccc(-c2cc3c(Oc4cccc(O)c4)ncnc3[nH]2)c1`, the residual activity was 95.9%.
The same measure, in the same setting: the same measure for `CC[n+]1c(/C=C/N(C)c2ccccc2)n(-c2ccccc2)c2ccc(-c3nc4ccccc4s3)cc21`: 115%.

The target of the next experiment is MARK1 (human) (UniProt Q9P0L2). The description is as above. The note with it: compound 0.5 µM; ATP 10 µM.
As for `CCN(CC)C(=O)c1ccc(Nc2nc(OCC3CCCCC3)c3nc[nH]c3n2)cc1`, the residual activity is 82.7%.
The same measure, in the same setting: the same measure for `Nc1cccc(-c2cc3c(Oc4cccc(O)c4)ncnc3[nH]2)c1`: 83%; for `CC[n+]1c(/C=C/N(C)c2ccccc2)n(-c2ccccc2)c2ccc(-c3nc4ccccc4s3)cc21`: 104%.

Another experiment addresses GSK3B (human) (UniProt P49841). The experiment is described as above. The settings on record: compound 0.5 µM; ATP 10 µM.
As to `CCN(CC)C(=O)c1ccc(Nc2nc(OCC3CCCCC3)c3nc[nH]c3n2)cc1`, the residual activity is 85%.
In the case of `Nc1cccc(-c2cc3c(Oc4cccc(O)c4)ncnc3[nH]2)c1`, the residual activity came to 48.1%.
For `CC[n+]1c(/C=C/N(C)c2ccccc2)n(-c2ccccc2)c2ccc(-c3nc4ccccc4s3)cc21`, the residual activity amounted to 105%.

The next experiment concerns the target CAMKK1 (human) (UniProt Q8N5S9). The description is as above. The settings on record: compound 0.5 µM; ATP 10 µM.
For `CCN(CC)C(=O)c1ccc(Nc2nc(OCC3CCCCC3)c3nc[nH]c3n2)cc1`, the residual activity came out at 96.8%.
On the same count and under the same terms, the figure for `Nc1cccc(-c2cc3c(Oc4cccc(O)c4)ncnc3[nH]2)c1` is 113%; for `CC[n+]1c(/C=C/N(C)c2ccccc2)n(-c2ccccc2)c2ccc(-c3nc4ccccc4s3)cc21` it is 115%.

The target of a further experiment is PDPK1 (human) (UniProt O15530). Described as above. The settings on record: compound 0.5 µM; ATP 10 µM.
PDPK1 (human), sequence (O15530 whole entry, looked up): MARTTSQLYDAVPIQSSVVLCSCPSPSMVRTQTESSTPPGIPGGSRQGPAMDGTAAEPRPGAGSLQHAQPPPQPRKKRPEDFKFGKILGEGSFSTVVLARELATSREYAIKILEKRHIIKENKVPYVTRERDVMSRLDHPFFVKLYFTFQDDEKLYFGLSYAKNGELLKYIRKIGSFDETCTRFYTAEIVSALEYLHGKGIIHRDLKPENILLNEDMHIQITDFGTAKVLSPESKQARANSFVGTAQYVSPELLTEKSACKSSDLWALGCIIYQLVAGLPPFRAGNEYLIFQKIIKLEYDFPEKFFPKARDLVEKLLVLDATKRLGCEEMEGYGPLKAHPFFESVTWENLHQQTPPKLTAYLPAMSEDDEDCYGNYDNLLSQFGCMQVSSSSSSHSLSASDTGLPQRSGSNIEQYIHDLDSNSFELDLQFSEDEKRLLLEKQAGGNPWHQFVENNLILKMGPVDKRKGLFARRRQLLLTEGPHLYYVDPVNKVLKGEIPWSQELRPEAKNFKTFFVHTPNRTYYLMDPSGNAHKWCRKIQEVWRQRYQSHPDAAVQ
Take `CCN(CC)C(=O)c1ccc(Nc2nc(OCC3CCCCC3)c3nc[nH]c3n2)cc1`: the residual activity came to 69.1%.
Turning to `Nc1cccc(-c2cc3c(Oc4cccc(O)c4)ncnc3[nH]2)c1`, the residual activity is 86.8%.
Same read-out and setting: the same measure for `CC[n+]1c(/C=C/N(C)c2ccccc2)n(-c2ccccc2)c2ccc(-c3nc4ccccc4s3)cc21`: 103%.

For another experiment, the target named is GSK3A (human) (UniProt P49840). The description is as above. The settings on record: compound 0.5 µM; ATP 10 µM.
As to `CCN(CC)C(=O)c1ccc(Nc2nc(OCC3CCCCC3)c3nc[nH]c3n2)cc1`, the residual activity is 80.3%.
On the same count and under the same terms, the same measure for `Nc1cccc(-c2cc3c(Oc4cccc(O)c4)ncnc3[nH]2)c1`: 41.6%; for `CC[n+]1c(/C=C/N(C)c2ccccc2)n(-c2ccccc2)c2ccc(-c3nc4ccccc4s3)cc21`: 103%.

A further experiment concerns the target MAP3K2 (human) (UniProt Q9Y2U5). The description is as above. The note with it: compound 0.5 µM; ATP 10 µM.
Turning to `CCN(CC)C(=O)c1ccc(Nc2nc(OCC3CCCCC3)c3nc[nH]c3n2)cc1`, the residual activity came out at 25.3%.
With `Nc1cccc(-c2cc3c(Oc4cccc(O)c4)ncnc3[nH]2)c1`, the residual activity worked out at 86.9%.
`CC[n+]1c(/C=C/N(C)c2ccccc2)n(-c2ccccc2)c2ccc(-c3nc4ccccc4s3)cc21`: the residual activity was 90.3%.

The target in another experiment is CDK5 CDK5R1 p25 (human) (UniProt Q00535+Q15078). The description is as above. The note with it: compound 0.5 µM; ATP 10 µM.
On to `CCN(CC)C(=O)c1ccc(Nc2nc(OCC3CCCCC3)c3nc[nH]c3n2)cc1`, for which the residual activity worked out at 77.2%.
Still for that read-out and setting: the figure for `Nc1cccc(-c2cc3c(Oc4cccc(O)c4)ncnc3[nH]2)c1` is 114%.
On the same count and under the same terms, the same measure for `CC[n+]1c(/C=C/N(C)c2ccccc2)n(-c2ccccc2)c2ccc(-c3nc4ccccc4s3)cc21`: 103%.

The target of the next experiment is STK4 (human) (UniProt Q13043). The experiment is described as above. The settings on record: compound 0.5 µM; ATP 10 µM.
For `CCN(CC)C(=O)c1ccc(Nc2nc(OCC3CCCCC3)c3nc[nH]c3n2)cc1`, the residual activity came out at 46.3%.
For `Nc1cccc(-c2cc3c(Oc4cccc(O)c4)ncnc3[nH]2)c1`, the residual activity stood at 94.4%.
Take `CC[n+]1c(/C=C/N(C)c2ccccc2)n(-c2ccccc2)c2ccc(-c3nc4ccccc4s3)cc21`: the residual activity was 98.3%.

In another experiment the target is NEK9 (human) (UniProt Q8TD19). Described as above. The note with it: compound 0.5 µM; ATP 10 µM.
NEK9 (human), sequence (Q8TD19 whole entry, looked up): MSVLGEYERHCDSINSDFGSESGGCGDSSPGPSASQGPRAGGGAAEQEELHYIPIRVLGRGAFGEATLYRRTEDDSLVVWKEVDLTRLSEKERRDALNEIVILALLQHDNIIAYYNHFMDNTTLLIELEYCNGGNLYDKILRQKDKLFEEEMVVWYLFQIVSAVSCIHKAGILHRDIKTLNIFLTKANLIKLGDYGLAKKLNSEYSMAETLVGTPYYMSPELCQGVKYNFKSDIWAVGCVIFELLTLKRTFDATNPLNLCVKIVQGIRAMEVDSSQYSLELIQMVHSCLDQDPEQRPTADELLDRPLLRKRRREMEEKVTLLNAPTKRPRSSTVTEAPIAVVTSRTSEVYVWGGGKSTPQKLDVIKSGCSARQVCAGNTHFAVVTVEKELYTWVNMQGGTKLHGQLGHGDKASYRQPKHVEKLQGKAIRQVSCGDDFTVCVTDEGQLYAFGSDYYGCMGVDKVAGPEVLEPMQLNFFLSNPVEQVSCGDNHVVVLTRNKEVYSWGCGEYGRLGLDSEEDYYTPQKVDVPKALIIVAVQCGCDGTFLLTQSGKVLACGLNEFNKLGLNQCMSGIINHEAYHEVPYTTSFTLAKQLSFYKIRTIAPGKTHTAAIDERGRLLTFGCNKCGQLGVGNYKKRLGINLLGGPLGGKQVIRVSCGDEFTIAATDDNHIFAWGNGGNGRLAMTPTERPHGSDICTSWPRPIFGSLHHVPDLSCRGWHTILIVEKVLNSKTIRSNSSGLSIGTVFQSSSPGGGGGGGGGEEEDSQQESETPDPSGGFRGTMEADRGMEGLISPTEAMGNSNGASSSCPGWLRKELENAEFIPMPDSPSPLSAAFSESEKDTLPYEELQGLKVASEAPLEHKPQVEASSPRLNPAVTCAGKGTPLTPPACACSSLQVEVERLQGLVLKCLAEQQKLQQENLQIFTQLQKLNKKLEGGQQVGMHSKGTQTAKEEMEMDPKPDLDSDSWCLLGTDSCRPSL
Turning to `CCN(CC)C(=O)c1ccc(Nc2nc(OCC3CCCCC3)c3nc[nH]c3n2)cc1`, the residual activity is 81.9%.
On the same count and under the same terms, the same measure for `Nc1cccc(-c2cc3c(Oc4cccc(O)c4)ncnc3[nH]2)c1`: 103%; for `CC[n+]1c(/C=C/N(C)c2ccccc2)n(-c2ccccc2)c2ccc(-c3nc4ccccc4s3)cc21`: 108%.

The target in a further experiment is SIK2 (human) (UniProt Q9H0K1). Described as above. The settings on record: compound 0.5 µM; ATP 10 µM.
SIK2 (human), sequence (Q9H0K1 whole entry, looked up): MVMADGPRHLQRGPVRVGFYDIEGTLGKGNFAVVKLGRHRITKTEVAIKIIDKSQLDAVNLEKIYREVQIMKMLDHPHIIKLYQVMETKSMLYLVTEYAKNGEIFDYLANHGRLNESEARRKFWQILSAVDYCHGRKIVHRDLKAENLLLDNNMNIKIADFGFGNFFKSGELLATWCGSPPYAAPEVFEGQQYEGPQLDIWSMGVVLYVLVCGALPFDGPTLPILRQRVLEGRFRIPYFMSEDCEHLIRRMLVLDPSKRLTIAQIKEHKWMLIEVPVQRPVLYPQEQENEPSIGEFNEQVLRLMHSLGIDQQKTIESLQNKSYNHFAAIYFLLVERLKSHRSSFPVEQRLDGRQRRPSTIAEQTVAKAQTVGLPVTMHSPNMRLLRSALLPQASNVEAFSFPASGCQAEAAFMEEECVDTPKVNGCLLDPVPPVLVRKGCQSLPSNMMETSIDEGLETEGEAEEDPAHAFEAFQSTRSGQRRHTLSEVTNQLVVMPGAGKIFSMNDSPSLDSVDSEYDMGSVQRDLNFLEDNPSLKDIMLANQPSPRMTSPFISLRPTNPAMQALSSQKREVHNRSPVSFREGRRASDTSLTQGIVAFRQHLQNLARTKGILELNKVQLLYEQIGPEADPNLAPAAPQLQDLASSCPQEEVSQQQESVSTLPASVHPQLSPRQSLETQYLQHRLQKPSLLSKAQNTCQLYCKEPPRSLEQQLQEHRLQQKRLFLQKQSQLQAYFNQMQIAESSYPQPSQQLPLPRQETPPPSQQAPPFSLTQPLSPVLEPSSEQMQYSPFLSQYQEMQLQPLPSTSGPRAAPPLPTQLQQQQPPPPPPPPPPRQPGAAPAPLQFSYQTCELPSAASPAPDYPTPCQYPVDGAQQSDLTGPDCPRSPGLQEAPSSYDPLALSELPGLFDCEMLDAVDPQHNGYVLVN
`CCN(CC)C(=O)c1ccc(Nc2nc(OCC3CCCCC3)c3nc[nH]c3n2)cc1`: the residual activity was 75.3%.
The same measure, in the same setting: the figure for `Nc1cccc(-c2cc3c(Oc4cccc(O)c4)ncnc3[nH]2)c1` is 69.4%; for `CC[n+]1c(/C=C/N(C)c2ccccc2)n(-c2ccccc2)c2ccc(-c3nc4ccccc4s3)cc21` it is 112%.

The next experiment deals with MAPKAPK3 (human) (UniProt Q16644). The experiment is described as above. The settings on record: compound 0.5 µM; ATP 10 µM.
Turning to `CCN(CC)C(=O)c1ccc(Nc2nc(OCC3CCCCC3)c3nc[nH]c3n2)cc1`, the residual activity came out at 103%.
The same measure, in the same setting: the same measure for `Nc1cccc(-c2cc3c(Oc4cccc(O)c4)ncnc3[nH]2)c1`: 97.6%; for `CC[n+]1c(/C=C/N(C)c2ccccc2)n(-c2ccccc2)c2ccc(-c3nc4ccccc4s3)cc21`: 100%.

A further experiment addresses MUSK (human) (UniProt O15146). The description is as above. The note with it: compound 0.5 µM; ATP 10 µM.
In the case of `CCN(CC)C(=O)c1ccc(Nc2nc(OCC3CCCCC3)c3nc[nH]c3n2)cc1`, the residual activity amounted to 77.5%.
Same read-out and setting: the same measure for `Nc1cccc(-c2cc3c(Oc4cccc(O)c4)ncnc3[nH]2)c1`: 62.8%.
On the same count and under the same terms, the figure for `CC[n+]1c(/C=C/N(C)c2ccccc2)n(-c2ccccc2)c2ccc(-c3nc4ccccc4s3)cc21` is 94.7%.

For another experiment, the target named is EPHA7 (human) (UniProt Q15375). The experiment is described as above. The note with it: compound 0.5 µM; ATP 10 µM.
EPHA7 (human), sequence (Q15375 whole entry, looked up): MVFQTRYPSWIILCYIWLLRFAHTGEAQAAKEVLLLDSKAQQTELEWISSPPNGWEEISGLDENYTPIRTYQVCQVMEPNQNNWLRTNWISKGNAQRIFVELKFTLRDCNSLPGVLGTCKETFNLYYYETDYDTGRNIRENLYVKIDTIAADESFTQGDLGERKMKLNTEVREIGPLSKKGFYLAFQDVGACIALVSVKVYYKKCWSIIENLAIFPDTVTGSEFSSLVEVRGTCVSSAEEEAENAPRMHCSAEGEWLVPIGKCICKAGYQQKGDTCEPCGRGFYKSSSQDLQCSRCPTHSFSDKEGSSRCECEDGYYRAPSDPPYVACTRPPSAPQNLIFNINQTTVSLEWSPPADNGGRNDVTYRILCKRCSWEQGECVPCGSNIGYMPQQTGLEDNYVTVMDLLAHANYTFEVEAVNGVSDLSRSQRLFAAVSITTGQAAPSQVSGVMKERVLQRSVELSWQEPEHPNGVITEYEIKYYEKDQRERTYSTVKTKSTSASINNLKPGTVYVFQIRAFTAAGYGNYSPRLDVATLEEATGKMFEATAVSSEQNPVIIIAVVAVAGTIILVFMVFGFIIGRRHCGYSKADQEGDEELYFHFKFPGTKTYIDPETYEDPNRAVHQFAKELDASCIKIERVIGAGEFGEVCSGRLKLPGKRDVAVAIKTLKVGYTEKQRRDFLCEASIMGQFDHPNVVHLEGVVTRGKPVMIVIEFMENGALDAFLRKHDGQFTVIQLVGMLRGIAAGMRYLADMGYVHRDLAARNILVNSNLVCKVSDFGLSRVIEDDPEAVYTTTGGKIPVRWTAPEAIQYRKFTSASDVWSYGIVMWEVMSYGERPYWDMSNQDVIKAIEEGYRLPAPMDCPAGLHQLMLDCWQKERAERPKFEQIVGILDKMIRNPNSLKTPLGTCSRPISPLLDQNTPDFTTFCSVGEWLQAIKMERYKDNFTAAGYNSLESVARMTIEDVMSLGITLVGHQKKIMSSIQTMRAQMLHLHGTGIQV
For `CCN(CC)C(=O)c1ccc(Nc2nc(OCC3CCCCC3)c3nc[nH]c3n2)cc1`, the residual activity stood at 72.8%.
The same measure, in the same setting: the same measure for `Nc1cccc(-c2cc3c(Oc4cccc(O)c4)ncnc3[nH]2)c1`: 77.2%; for `CC[n+]1c(/C=C/N(C)c2ccccc2)n(-c2ccccc2)c2ccc(-c3nc4ccccc4s3)cc21`: 97.9%.

The next experiment deals with STK39 (human) (UniProt Q9UEW8). Described as above. The settings on record: compound 0.5 µM; ATP 10 µM.
Regarding `CCN(CC)C(=O)c1ccc(Nc2nc(OCC3CCCCC3)c3nc[nH]c3n2)cc1`, the residual activity stood at 91.5%.
For `Nc1cccc(-c2cc3c(Oc4cccc(O)c4)ncnc3[nH]2)c1`, the residual activity is 119%.
On to `CC[n+]1c(/C=C/N(C)c2ccccc2)n(-c2ccccc2)c2ccc(-c3nc4ccccc4s3)cc21`, for which the residual activity was determined as 81.1%.

The target of another experiment is MAPKAPK5 (human) (UniProt Q8IW41). The experiment is described as above. The note with it: compound 0.5 µM; ATP 10 µM.
With `CCN(CC)C(=O)c1ccc(Nc2nc(OCC3CCCCC3)c3nc[nH]c3n2)cc1`, the residual activity is 87.8%.

For the origin of these results see the kinase profiling compilation of Christmann-Franck et al. (2016).
